Measured values taken from ChEMBL document CHEMBL4177524, “Discovery of hepatitis B virus capsid assembly inhibitors leading to a heteroaryldihydropyrimidine based clinical candidate (GLS4)” (Bioorg Med Chem, 2017).

Tests used:
[1] = system: Mus musculus; test: Biotransformation in po dosed mouse assessed as (S)-Ethyl 4-(2-bromo-4-fluorophenyl)-6-(morpholinomethyl)-2-(thiazol-2-yl)-1,4-dihydropyrimidine-5-carboxylate formation; type: ADME, organism-based; settings: in vivo
[2] = molecular target: Nitric oxide synthase, inducible (Homo sapiens) (UniProt P35228); test: Inhibition of iNOS (unknown origin) at 1 uM
[3] = molecular target: Prostaglandin G/H synthase 1 (Homo sapiens) (UniProt P23219); test: Inhibition of COX-1 (unknown origin) at 1 uM
[4] = molecular target: Protein kinase C alpha type (Homo sapiens) (UniProt P17252); test: Inhibition of PKCalpha (unknown origin) at 1 uM
[5] = Drug uptake in beagle dog lung by LC/MS/MS analysis; type: ADME, tissue-based, Canis lupus familiaris; settings: in vivo
[6] = species on record: Homo sapiens; test: Inhibition of proteasome (unknown origin) at 1 uM
[7] = AUC (0 to 24 hrs) in beagle dog at 45 mg/kg, po by LC/MS/MS analysis; type: ADME, organism-based, Canis lupus familiaris; parameters: time < 24 hr, dose 45 mg/kg, route oral; settings: in vivo
[8] = species on record: Homo sapiens; test: Inhibition of calcium channel (unknown origin) at 1 uM
[9] = molecular target: Tyrosine-protein kinase ZAP-70 (Homo sapiens) (UniProt P43403); test: Inhibition of ZA70 (unknown origin) at 1 uM
[10] = Volume of distribution at steady state in beagle dog at 5 mg/kg, iv by LC/MS/MS analysis; type: ADME, organism-based, Canis lupus familiaris; settings: in vivo, read-out: Vdss
[11] = molecular target: Epidermal growth factor receptor (Homo sapiens) (UniProt P00533); test: Inhibition of EGFR (unknown origin) at 1 uM
[12] = AUC (0 to 24 hrs) in beagle dog at 15 mg/kg, po by LC/MS/MS analysis; type: ADME, organism-based, Canis lupus familiaris; parameters: dose 15 mg/kg, time < 24 hr, route oral; settings: in vivo
[13] = Half life in beagle dog at 5 mg/kg, po by LC/MS/MS analysis; settings: in vivo
[14] = molecular target: Bile acid receptor (Homo sapiens) (UniProt Q96RI1); test: Antagonist activity at FXR (unknown origin) at 1 uM
[15] = system: Canis familiaris; test: Biotransformation in po dosed beagle dog assessed as (R)-Ethyl 4-(2-bromo-4-fluorophenyl)-6-(morpholinomethyl)-2-(thiazol-2-yl)-1,4-dihydropyrimidine-5-carboxylate formation; type: ADME, organism-based, Canis lupus familiaris; settings: in vivo
[16] = system: Canis familiaris; test: Cmax in beagle dog at 45 mg/kg, po by LC/MS/MS analysis; type: ADME, organism-based, Canis lupus familiaris; parameters: dose 45 mg/kg, route oral; settings: in vivo
[17] = molecular target: Tyrosine-protein kinase ABL1 (Homo sapiens) (UniProt P00519); test: Inhibition of ABL1 (unknown origin) at 1 uM
[18] = system: Canis familiaris; test: Biotransformation in po dosed beagle dog assessed as (S)-Ethyl 4-(2-bromo-4-fluorophenyl)-6-(morpholinomethyl)-2-(thiazol-2-yl)-1,4-dihydropyrimidine-5-carboxylate formation; type: ADME, organism-based, Canis lupus familiaris; settings: in vivo
[19] = molecular target: Low molecular weight phosphotyrosine protein phosphatase (Homo sapiens) (UniProt P24666); test: Inhibition of ACP1 (unknown origin) at 1 uM
[20] = molecular target: Interleukin-8 receptors, CXCR1/CXCR2 (Homo sapiens) (UniProt P25025+P25024); test: Inhibition of CXCR1/2 (unknown origin) at 1 uM; type: protein assay
[21] = molecular target: D(1A) dopamine receptor (Homo sapiens) (UniProt P21728); test: Inhibition of dopamine D1 receptor (unknown origin) at 1 uM
[22] = molecular target: Core antigen (Hepatitis B virus) (UniProt Q03732); test: Inhibition of hepatitis B virus capsid assembly infected in human HepG2.215 cells assessed as reduction in viral DNA replication measured on day 7 by real time PCR analysis; type: cell-based
[23] = system: Canis familiaris; test: Cmax in beagle dog at 5 mg/kg, po by LC/MS/MS analysis; type: ADME, organism-based, Canis lupus familiaris; parameters: dose 5 mg/kg, route oral; settings: in vivo
[24] = Toxicity in beagle dog administered via oral gavage for 28 days; type: organism-based, Canis lupus familiaris; settings: in vivo
[25] = molecular target: Oxysterols receptor LXR-beta (Homo sapiens) (UniProt P55055); test: Antagonist activity at LXRbeta (unknown origin) at 1 uM
[26] = molecular target: Platelet-activating factor receptor (Homo sapiens) (UniProt P25105); test: Inhibition of platelet-activating factor receptor (unknown origin) at 1 uM
[27] = molecular target: Tyrosine-protein kinase JAK2 (Homo sapiens) (UniProt O60674); test: Inhibition of JAK2 (unknown origin) at 1 uM
[28] = species on record: Homo sapiens; test: Inhibition of lipase (unknown origin) at 1 uM
[29] = Drug uptake in beagle dog heart by LC/MS/MS analysis; type: ADME, tissue-based, Canis lupus familiaris; settings: in vivo
[30] = molecular target: Adenosine receptor A1 (Homo sapiens) (UniProt P30542); test: Inhibition of adenosine receptor A1 (unknown origin) at 1 uM
[31] = system: Canis familiaris; test: Cmax in beagle dog at 15 mg/kg, po for 7 days by LC/MS/MS analysis; type: ADME, organism-based, Canis lupus familiaris; parameters: dose 15 mg/kg, route oral; settings: in vivo, 168 h
[32] = in vivo; settings: beagle, dog, po, 5 mg/kg
[33] = molecular target: Proto-oncogene tyrosine-protein kinase Src (Homo sapiens) (UniProt P12931); test: Inhibition of SRC (unknown origin) at 1 uM
[34] = in vivo; settings: beagle, dog, po, 15 mg/kg
Description: Half life in beagle dog at 15 mg/kg, po by LC/MS/MS analysis

[35] = in vivo; settings: beagle, dog, po, 15 mg/kg; remark: listed apart in the source
Description: Half life in beagle dog at 15 mg/kg, po for 7 days by LC/MS/MS analysis

[36] = molecular target: NAD-dependent protein deacetylase sirtuin-1 (Homo sapiens) (UniProt Q96EB6); test: Inhibition of SIRT1 (unknown origin) at 1 uM
[37] = molecular target: Death-associated protein kinase 1 (Homo sapiens) (UniProt P53355); test: Inhibition of DAPK1 (unknown origin) at 1 uM
[38] = Half life in beagle dog at 5 mg/kg, iv by LC/MS/MS analysis; settings: in vivo
[39] = in vivo; settings: beagle, dog, po, 45 mg/kg
Description: Half life in beagle dog at 45 mg/kg, po by LC/MS/MS analysis

[40] = Drug uptake in beagle dog liver by LC/MS/MS analysis; type: ADME, tissue-based, Canis lupus familiaris; settings: in vivo
[41] = molecular target: Oxysterols receptor LXR-beta (Homo sapiens) (UniProt P55055); test: Agonist activity at LXRbeta (unknown origin) at 1 uM
[42] = molecular target: Mitogen-activated protein kinase 3 (Homo sapiens) (UniProt P27361); test: Inhibition of ERK1 (unknown origin) at 1 uM
[43] = molecular target: Trypsin (Homo sapiens) (UniProt P07477+P07478+P35030); test: Inhibition of trypsin (unknown origin) at 1 uM; type: protein assay
[44] = molecular target: Bile acid receptor (Homo sapiens) (UniProt Q96RI1); test: Agonist activity at FXR (unknown origin) at 1 uM
[45] = AUC (0 to 24 hrs) in beagle dog at 5 mg/kg, iv by LC/MS/MS analysis; type: ADME, organism-based, Canis lupus familiaris; parameters: dose 5 mg/kg, time < 24 hr, route intravenous; settings: in vivo
[46] = molecular target: Sodium-dependent serotonin transporter (Homo sapiens) (UniProt P31645); test: Inhibition of 5-Serotonin transporter (unknown origin) at 1 uM
[47] = molecular target: Receptor-type tyrosine-protein kinase FLT3 (Homo sapiens) (UniProt P36888); test: Inhibition of FLT3 (unknown origin) at 1 uM
[48] = system: Canis familiaris; test: Cmax in beagle dog at 15 mg/kg, po by LC/MS/MS analysis; type: ADME, organism-based, Canis lupus familiaris; parameters: dose 15 mg/kg, route oral; settings: in vivo
[49] = molecular target: 72 kDa type IV collagenase (Homo sapiens) (UniProt P08253); test: Inhibition of MMP2 (unknown origin) at 1 uM
[50] = molecular target: RAC-alpha serine/threonine-protein kinase (Homo sapiens) (UniProt P31749); test: Inhibition of AKT1 (unknown origin) at 1 uM
[51] = system: Mus musculus; test: Biotransformation in po dosed mouse assessed as (R)-Ethyl 4-(2-bromo-4-fluorophenyl)-6-(morpholinomethyl)-2-(thiazol-2-yl)-1,4-dihydropyrimidine-5-carboxylate formation; type: ADME, organism-based; settings: in vivo
[52] = species on record: Homo sapiens; test: Inhibition of neural phospholipase (unknown origin) at 1 uM
[53] = Clearance in beagle dog at 5 mg/kg, iv by LC/MS/MS analysis; type: ADME, organism-based, Canis lupus familiaris; settings: in vivo
[54] = Drug uptake in beagle dog brain by LC/MS/MS analysis; type: ADME, tissue-based, Canis lupus familiaris; settings: in vivo
[55] = molecular target: Calcium/calmodulin-dependent protein kinase type II subunit delta (Homo sapiens) (UniProt Q13557); test: Inhibition of CAMK2D (unknown origin) at 1 uM
[56] = AUC (0 to 24 hrs) in beagle dog at 15 mg/kg, po for 7 days by LC/MS/MS analysis; type: ADME, organism-based, Canis lupus familiaris; parameters: time < 24 hr, dose 15 mg/kg, route oral; settings: in vivo
[57] = molecular target: Sodium/potassium-transporting ATPase (Homo sapiens) (UniProt P05023+P14415+P05026+P50993+P54709+P13637+Q13733+P54710); test: Inhibition of Sodium/potassium-transporting ATPase (unknown origin) at 1 uM; type: protein-complex assay
[58] = AUC (0 to 24 hrs) in beagle dog at 5 mg/kg, po by LC/MS/MS analysis; type: ADME, organism-based, Canis lupus familiaris; parameters: time < 24 hr, dose 5 mg/kg, route oral; settings: in vivo
[59] = molecular target: Disintegrin and metalloproteinase domain-containing protein 17 (Homo sapiens) (UniProt P78536); test: Inhibition of TACE (unknown origin) at 1 uM
[60] = Cytotoxicity in human HepG2.215 cells assessed as reduction in cell viability after 5 days by CCK8 assay; type: cell-based, HepG2 2.2.15; settings: HepG2.2.15 cells

Sequence of Oxysterols receptor LXR-beta (Homo sapiens) (P55055 whole entry): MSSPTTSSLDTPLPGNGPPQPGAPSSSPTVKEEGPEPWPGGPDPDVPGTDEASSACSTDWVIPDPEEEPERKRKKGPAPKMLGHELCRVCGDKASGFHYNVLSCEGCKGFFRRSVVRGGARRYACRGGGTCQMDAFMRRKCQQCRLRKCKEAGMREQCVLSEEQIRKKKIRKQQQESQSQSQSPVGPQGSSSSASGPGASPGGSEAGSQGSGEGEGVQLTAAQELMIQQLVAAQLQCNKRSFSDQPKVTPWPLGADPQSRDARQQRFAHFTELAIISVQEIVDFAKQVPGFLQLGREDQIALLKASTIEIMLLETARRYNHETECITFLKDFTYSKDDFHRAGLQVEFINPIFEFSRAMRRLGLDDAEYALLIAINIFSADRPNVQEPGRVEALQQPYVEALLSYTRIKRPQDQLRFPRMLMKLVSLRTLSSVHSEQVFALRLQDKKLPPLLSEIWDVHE
Sequence of Bile acid receptor (Homo sapiens) (Q96RI1 whole entry): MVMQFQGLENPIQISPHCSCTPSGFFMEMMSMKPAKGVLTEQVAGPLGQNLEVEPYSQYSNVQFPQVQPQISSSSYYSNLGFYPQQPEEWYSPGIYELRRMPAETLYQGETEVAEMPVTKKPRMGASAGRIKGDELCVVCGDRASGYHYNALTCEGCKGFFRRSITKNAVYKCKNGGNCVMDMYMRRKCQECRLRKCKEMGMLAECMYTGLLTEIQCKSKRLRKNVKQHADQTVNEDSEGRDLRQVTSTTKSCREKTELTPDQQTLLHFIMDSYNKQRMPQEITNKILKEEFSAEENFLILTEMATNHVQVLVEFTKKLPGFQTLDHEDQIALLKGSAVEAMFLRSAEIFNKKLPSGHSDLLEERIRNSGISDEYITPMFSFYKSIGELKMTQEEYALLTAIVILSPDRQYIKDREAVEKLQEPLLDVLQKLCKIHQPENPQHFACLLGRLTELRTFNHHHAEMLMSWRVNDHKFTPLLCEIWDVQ
Sequence of Platelet-activating factor receptor (Homo sapiens) (P25105 whole entry): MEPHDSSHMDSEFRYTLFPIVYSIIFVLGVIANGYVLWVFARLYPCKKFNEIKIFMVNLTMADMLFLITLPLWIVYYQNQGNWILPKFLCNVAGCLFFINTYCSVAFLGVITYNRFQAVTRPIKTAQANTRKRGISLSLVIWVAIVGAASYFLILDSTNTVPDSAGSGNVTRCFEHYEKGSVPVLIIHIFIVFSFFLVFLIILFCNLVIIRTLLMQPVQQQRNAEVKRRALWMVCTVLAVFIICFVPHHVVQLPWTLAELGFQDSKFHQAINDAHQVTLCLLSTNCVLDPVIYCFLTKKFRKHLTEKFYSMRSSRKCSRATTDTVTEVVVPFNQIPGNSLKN
Sequence of 72 kDa type IV collagenase (Homo sapiens) (P08253 110-660 limits assumed): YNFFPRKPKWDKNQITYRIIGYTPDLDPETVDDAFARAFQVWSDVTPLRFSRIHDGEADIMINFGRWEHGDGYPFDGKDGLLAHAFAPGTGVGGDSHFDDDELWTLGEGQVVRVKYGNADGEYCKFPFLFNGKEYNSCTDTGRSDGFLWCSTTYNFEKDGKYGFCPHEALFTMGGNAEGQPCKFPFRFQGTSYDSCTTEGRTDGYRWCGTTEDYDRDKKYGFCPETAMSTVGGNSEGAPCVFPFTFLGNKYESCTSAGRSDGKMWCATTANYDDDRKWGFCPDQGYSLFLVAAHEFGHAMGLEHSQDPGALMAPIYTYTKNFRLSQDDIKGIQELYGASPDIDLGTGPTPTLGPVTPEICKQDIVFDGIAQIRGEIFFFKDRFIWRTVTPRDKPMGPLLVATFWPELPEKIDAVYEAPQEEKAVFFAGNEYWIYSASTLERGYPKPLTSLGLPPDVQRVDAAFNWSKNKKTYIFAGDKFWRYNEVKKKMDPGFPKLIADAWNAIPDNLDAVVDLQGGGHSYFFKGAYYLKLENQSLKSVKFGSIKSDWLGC
Sequence of Receptor-type tyrosine-protein kinase FLT3 (Homo sapiens) (P36888 whole entry): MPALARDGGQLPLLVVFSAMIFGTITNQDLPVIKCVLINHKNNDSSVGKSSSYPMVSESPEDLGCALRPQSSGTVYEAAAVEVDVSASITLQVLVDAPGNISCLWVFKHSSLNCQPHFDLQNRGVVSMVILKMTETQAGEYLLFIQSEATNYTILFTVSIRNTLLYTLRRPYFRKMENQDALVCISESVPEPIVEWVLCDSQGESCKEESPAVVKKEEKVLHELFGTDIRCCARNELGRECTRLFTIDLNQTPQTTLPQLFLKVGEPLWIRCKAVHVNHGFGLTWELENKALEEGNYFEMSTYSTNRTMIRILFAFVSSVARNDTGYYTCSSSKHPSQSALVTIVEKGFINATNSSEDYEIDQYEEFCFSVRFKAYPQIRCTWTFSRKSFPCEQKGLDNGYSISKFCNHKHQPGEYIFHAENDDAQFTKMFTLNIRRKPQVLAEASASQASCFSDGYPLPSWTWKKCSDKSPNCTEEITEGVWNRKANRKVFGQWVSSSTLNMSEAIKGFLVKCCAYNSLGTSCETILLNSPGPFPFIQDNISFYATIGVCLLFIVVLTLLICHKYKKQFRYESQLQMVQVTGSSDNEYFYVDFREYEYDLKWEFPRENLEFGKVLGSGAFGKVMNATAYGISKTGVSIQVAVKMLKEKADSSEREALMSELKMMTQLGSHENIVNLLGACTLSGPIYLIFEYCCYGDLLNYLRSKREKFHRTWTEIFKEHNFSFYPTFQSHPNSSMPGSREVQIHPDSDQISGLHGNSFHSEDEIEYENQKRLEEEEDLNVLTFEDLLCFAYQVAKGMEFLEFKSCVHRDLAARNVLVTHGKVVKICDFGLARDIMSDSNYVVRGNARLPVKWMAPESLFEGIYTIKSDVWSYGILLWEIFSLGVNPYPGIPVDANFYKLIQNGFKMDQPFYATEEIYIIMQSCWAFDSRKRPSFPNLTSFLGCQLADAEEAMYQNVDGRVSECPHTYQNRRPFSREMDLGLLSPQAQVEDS
Sequence of Epidermal growth factor receptor (Homo sapiens) (P00533 whole entry): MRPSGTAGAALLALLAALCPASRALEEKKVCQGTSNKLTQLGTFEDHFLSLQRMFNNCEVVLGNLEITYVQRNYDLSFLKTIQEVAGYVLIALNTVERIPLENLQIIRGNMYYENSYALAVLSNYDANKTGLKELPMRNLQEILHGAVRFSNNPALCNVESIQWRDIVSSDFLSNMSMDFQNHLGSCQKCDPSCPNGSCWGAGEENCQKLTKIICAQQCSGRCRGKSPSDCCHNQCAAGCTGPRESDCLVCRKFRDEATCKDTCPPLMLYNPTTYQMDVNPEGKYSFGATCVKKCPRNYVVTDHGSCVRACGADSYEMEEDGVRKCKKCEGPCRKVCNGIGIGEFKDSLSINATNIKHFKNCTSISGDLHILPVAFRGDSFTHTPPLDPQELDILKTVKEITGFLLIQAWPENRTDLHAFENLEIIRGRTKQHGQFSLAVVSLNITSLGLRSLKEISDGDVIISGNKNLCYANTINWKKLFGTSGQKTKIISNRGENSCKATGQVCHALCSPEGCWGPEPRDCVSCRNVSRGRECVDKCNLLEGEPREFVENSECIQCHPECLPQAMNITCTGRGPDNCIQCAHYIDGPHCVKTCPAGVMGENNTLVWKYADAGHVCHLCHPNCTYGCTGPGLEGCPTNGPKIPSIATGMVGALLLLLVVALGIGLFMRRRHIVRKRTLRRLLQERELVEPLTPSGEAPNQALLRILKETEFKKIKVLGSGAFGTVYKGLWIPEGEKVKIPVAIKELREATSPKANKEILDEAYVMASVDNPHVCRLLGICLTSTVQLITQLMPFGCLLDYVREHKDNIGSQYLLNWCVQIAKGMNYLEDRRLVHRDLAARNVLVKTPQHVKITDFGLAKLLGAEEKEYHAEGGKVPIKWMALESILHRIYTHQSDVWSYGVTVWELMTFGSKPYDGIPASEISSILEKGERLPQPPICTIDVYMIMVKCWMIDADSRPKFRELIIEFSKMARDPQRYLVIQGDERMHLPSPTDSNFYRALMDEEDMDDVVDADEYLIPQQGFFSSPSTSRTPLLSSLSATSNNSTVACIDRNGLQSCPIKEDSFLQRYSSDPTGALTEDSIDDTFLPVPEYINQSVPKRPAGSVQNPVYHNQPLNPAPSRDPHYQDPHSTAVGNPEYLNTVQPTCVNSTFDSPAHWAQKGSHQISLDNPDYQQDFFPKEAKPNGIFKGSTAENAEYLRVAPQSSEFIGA
Sequence of Calcium/calmodulin-dependent protein kinase type II subunit delta (Homo sapiens) (Q13557 whole entry): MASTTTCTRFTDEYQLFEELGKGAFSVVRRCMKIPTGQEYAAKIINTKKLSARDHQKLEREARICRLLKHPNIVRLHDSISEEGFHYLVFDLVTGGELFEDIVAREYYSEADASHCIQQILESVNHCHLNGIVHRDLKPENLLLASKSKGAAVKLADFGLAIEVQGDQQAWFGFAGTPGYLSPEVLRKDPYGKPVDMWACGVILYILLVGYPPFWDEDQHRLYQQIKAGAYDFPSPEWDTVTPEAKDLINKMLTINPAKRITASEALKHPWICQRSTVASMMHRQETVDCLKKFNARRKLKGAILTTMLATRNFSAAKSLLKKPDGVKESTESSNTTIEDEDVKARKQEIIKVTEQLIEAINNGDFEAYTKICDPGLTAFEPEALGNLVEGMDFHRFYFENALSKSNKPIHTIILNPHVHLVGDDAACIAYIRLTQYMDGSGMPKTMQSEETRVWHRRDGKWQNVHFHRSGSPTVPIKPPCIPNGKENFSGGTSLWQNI
Sequence of RAC-alpha serine/threonine-protein kinase (Homo sapiens) (P31749 whole entry): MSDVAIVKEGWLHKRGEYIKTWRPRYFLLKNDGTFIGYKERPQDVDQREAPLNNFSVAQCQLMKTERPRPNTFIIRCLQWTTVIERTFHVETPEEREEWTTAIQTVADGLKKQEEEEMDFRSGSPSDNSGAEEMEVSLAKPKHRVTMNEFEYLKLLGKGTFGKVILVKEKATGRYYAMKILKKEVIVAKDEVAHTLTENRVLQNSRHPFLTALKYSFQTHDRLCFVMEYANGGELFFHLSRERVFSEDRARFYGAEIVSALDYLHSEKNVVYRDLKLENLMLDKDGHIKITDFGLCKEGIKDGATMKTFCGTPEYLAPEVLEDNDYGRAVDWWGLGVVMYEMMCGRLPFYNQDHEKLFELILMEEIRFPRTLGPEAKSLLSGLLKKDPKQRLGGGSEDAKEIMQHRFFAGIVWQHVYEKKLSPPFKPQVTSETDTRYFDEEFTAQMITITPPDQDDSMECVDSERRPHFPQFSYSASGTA

SMILES: CCOC(=O)C1=C(CN2CCOCC2)NC(c2nccs2)=NC1c1ccc(F)cc1Br (stereo not given)
- Drug metabolism [1]: Metabolite_Notdetected
- inhibition [2]: 7%
- inhibition [3]: -10%
- inhibition [4]: 1%
- Drug uptake [5]: Not Active
- inhibition [6]: 2%
- AUC(0-t) at 24 h [7]: 8470 ng·h/mL
- inhibition [8]: -6%
- inhibition [9]: 9%
- Vd [10]: 6.86 L/kg
- inhibition [11]: 0%
- AUC(0-t) at 24 h [12]: 2760 ng·h/mL
- half-life [13]: 6.91 h
- inhibition [14]: 4%
- Drug metabolism [15]: Metabolite_Notdetected
- Cmax [16]: 1180 ng/mL
- inhibition [17]: 2%
- Drug metabolism [18]: Metabolite_Notdetected
- inhibition [19]: -4%
- inhibition [20]: 8%
- inhibition [21]: 7%
- EC90 [22]: 0.006 µM
- Cmax [23]: 136 ng/mL
- NOAEL at 672 h [24]: 10 mg/kg
- inhibition [25]: -7%
- inhibition [26]: 10%
- inhibition [27]: 25%
- inhibition [28]: 4%
- Drug uptake [29]: Not Active
- inhibition [30]: 1%
- Cmax [31]: 524 ng/mL
- bioavailability [32]: 15.6%
- inhibition [33]: -3%
- half-life [34]: 7.32 h
- half-life at 168 h [35]: 9.47 h
- inhibition [36]: 7%
- inhibition [37]: 3%
- half-life [38]: 9.85 h
- half-life [39]: 6.29 h
- Drug uptake [40]: Active
- Activity [41]: 5%
- inhibition [42]: 7%
- inhibition [43]: 4%
- Activity [44]: 2%
- AUC(0-t) at 24 h [45]: 4350 ng·h/mL
- inhibition [46]: -1%
- inhibition [47]: 4%
- Cmax [48]: 698 ng/mL
- inhibition [49]: -3%
- inhibition [50]: -3%
- Drug metabolism [51]: Metabolite_Notdetected
- inhibition [52]: 9%
- clearance [53]: 17.9 mL/min/kg
- Drug uptake [54]: Not Active
- inhibition [55]: 11%
- AUC at 24 h [56]: 2830 ng·h/mL
- inhibition [57]: 4%
- AUC(0-t) at 24 h [58]: 695 ng·h/mL
- inhibition [59]: 2%

SMILES: Nc1ncnc2c1ncn2CCOCP(=O)(O)O [ADEFOVIR]
- CC50 at 120 h [60]: 200 µM
